These are literature values, as cited in patent US9636304B2, “Pharmaceutical composition comprising citrate and bicarbonate salts, and use thereof for treating cystinuria” (ADVICENNE, priority 2010, dated 2017).

The structures appear in SMILES notation.

The conditions of this data set: prior art, oral.

On to `O=C([O-])CC(O)(CC(=O)[O-])C(=O)[O-].[K+].[K+].[K+]` [potassium citrate], for which the gastric tolerance entry is “mediocre”.
